Data taken from PMC10793205, “Differential transmetallation of complexes of the anti-cancer thiosemicarbazone, Dp4e4mT: effects on anti-proliferative efficacy, redox activity, oxy-myoglobin and oxy-hemoglobin oxidation” (Chemical Science, 2023).
Entries after “also recorded” stand apart in the source; their conditions may differ.

Key:
oxy-Mb = biological target: T1, oxy-Mb (Homo sapiens, UniProt P02144); assay: Oxidation of purified oxy-Mb to met-Mb (UV-vis); format: biochemical; conditions: 10 μM agent, oxy-Mb 40 μM; for oxy-Mb oxidation (met-Mb generation): 3 h incubation, 20 °C; for oxy-Mb oxidation (in words): 1–3 h/20 °C
T1 sequence (P02144 1-154): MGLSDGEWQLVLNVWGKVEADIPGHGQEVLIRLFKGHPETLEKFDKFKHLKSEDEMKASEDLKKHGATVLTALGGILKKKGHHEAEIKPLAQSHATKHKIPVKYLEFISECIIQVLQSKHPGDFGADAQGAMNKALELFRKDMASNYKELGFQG
Source text: As such, it was important to examine the effect of the Dp4e4mT complexes on oxy-Hb and oxy-Mb oxidation (Fig. 6 and 7). Comparisons were made to three controls, namely DFO, Dp44mT, and DpC, as well as their Fe(III) complexes. […] In contrast, the Fe(III) complexes of Dp44mT and DpC were positive controls, as they induce oxidation of oxy-Mb.[28,39,42]
Fig. 6 (A and B) Investigation of the effects of Dp4e4mT and its Fe(III), Co(III), Ni(II), Cu(II), Zn(II), Ga(III), and Pd(II) complexes versus the positive controls DFO, Dp44mT, DpC and their Fe(III) complexes (10 μM) on met-Mb generation (% zero time) after an incubation of 1–3 h/20 °C with purified oxy-Mb (40 μM). Results are mean ± SD (3 experiments).
Spectroscopic Examination of Met-Mb and Met-Hb Formation from Oxy-Mb and Oxy- […]
Oxy-Mb and oxy-Hb solutions were prepared following established protocols.8, 17 In brief, solutions of reduced Mb and Hb in PBS (pH 7.2) were prepared by adding 1.2 mL of Na2S2O4 (12 mM) to 38 mL of met-Mb and met-Hb solution (40 μM). 17 Subsequently, oxy-Mb and oxy-Hb were generated by gently passing 150 mL of oxygen (from an air-filled syringe) through the solution containing reduced Mb and Hb, effectively eliminating any residual Na2S2O4. Following this, the oxy-Mb and oxy-Hb solutions were passed through a PD-10 column prepacked with 8.3 mL of Sephadex G-25 and equilibrated with PBS (pH 7.2). 17 In experiments examining the activity of the agents, all complexes were dissolved in 1,2-propanediol, then diluted to 10 µM in PBS (pH 7.2). The experiments were conducted over incubations of 0 to 3 h with the agents. UV-Vis spectra covering the range of 300 to 700 nm were recorded at a temperature of 20°C using a Shimadzu UV−Vis spectrophotometer (UV-1800; Shimadzu, Kyoto, Japan). Concentrations of met-Mb and met-Hb, as well as reduced-Mb and reduced-Hb, were determined at 409 nm and 435 nm, respectively. Concentrations of oxy-Mb and oxy-Hb were determined at 544 nm and 582 nm, respectively. 17

[1] = biological target: T2, oxy-Hb in intact human erythrocytes (Homo sapiens, UniProt P68871+P69905); assay: Oxidation of oxy-Hb in intact human erythrocytes; format: cell-based; conditions: 10 μM, 3 h/37 °C; for oxy-Hb oxidation to met-Hb in erythrocytes: control 0.5%
T2 construct: Physiologically, oxy-Hb is found in erythrocytes; endogenous in cells; host or cells: intact human erythrocytes from fresh blood of healthy donors
T2 sequence (P69905 2-142 limits assumed): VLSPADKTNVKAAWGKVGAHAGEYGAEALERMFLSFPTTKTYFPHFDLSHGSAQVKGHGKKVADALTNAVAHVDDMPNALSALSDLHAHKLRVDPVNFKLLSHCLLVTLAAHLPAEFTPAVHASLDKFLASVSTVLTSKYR
T2 sequence (P68871 2-147 limits assumed): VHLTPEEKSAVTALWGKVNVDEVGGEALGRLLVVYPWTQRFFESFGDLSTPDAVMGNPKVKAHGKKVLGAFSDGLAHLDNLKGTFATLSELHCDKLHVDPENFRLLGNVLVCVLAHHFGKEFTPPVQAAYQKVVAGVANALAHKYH
Experimental: Fig. 7 (A and B) Investigation of the effects of Dp4e4mT and its Fe(III), Co(III), Ni(II), Cu(II), Zn(II), Ga(III), and Pd(II) complexes versus DFO, Dp44mT, DpC and their Fe(III) complexes (10 μM) on met-Hb generation (% zero time) after an incubation of 1–3 h/20 °C with purified oxy-Hb (40 μM). (C) Investigation of the effects of Dp4e4mT and its Fe(III), Co(III), Ni(II), Cu(II), Zn(II), Ga(III), or Pd(II) complexes relative to the positive controls DFO, Dp44mT, DpC, and their Fe(III) complexes (10 μM) on oxy-Hb oxidation in intact human erythrocytes after a 3 h/37 °C incubation. Results are mean ± SD (3 experiments).
Physiologically, oxy-Hb is found in erythrocytes, and in the current investigation, the ligands and complexes (10 μM) were incubated with intact human erythrocytes for 3 h/37 °C to assess their effects on oxy-Hb oxidation (Fig. 7C). As expected from our previous studies,[28,39] […]
In experiments examining the activity of the agents, all complexes were dissolved in 1,2-propanediol, then diluted to 10 µM in PBS (pH 7.2). […]
1800; Shimadzu, Kyoto, Japan). Concentrations of met-Mb and met-Hb, as well as reduced-Mb and reduced-Hb, were determined at 409 nm and 435 nm, respectively. Concentrations of oxy-Mb and oxy-Hb were determined at 544 nm and 582 nm, respectively. 17 Oxidation of Oxy-Hb in Human Erythrocytes
Oxidation of oxy-Hb in human erythrocytes was performed by standard methods using fresh blood from healthy donors after collection in Vacutainer® collection tubes (BD, Plymouth, UK).8 Erythrocytes centrifuged (480 xg/5 min/4°C) and then washed in HBSS, and subsequently resuspended in this buffer. Incubation of the erythrocytes (15% hematocrit) in the absence or presence of the agents (10 μM) was performed for 3 h/37°C. The erythrocytes were […]

[2] = listed as Dp4e4mT Co(III) complex
[3] = listed as Dp4e4mT Pd(II) complex
[4] = listed as Dp4e4mT Zn(II) complex

Compound | oxy-Mb oxidation (met-Mb generation) (oxy-Mb) | oxy-Hb oxidation to met-Hb in erythrocytes [1] | oxy-Hb oxidation in erythrocytes versus the control (in words) [1] | oxy-Mb oxidation (in words) (oxy-Mb) | also measured
CCN(C)C(=S)NN=C(c1ccccn1)c1ccccn1 [Dp4e4mT, di-2-pyridylketone-4-ethyl-4-methyl-3-thiosemicarbazone] | 140 % of the control | 1.9 % of the total |  |  | 
CN(C)C(=S)NN=C(c1ccccn1)c1ccccn1 [Dp44mT, di-2-pyridylketone 4,4-dimethyl-3-thiosemicarbazone, reference compound] | 129 % of the control | 2.3 % of the total |  |  | 
CN(C(=S)NN=C(c1ccccn1)c1ccccn1)C1CCCCC1 [DpC, di-2-pyridylketone 4-cyclohexyl-4-methyl-3-thiosemicarbazone, reference compound] |  |  | did not induce any significant (p > 0.05) increase in oxy-Hb oxidation |  | 
CCN(C)C([S-])=NN=C(c1ccccn1)c1ccccn1.CCN(C)C([S-])=NN=C(c1ccccn1)c1ccccn1.[Co+3] [[Co(Dp4e4mT)2]^+] |  |  | negligible effects on oxy-Hb oxidation | minimal impact | oxy-Mb oxidation (in words) (oxy-Mb; [2]): no appreciable oxidation of oxy-Mb; oxy-Hb oxidation in erythrocytes versus the control (in words) [1, 2]: no (p > 0.05) significant effect on oxy-Hb oxidation
CCN(C)C([S-])=NN=C(c1ccccn1)c1ccccn1.[Cl-].[Cu+2] [[Cu(Dp4e4mT)Cl]] |  |  | negligible effects on oxy-Hb oxidation | did not significantly lead to oxidation of oxy-Mb | 
CCN(C)C([S-])=NN=C(c1ccccn1)c1ccccn1.CCN(C)C([S-])=NN=C(c1ccccn1)c1ccccn1.[Fe+3] [[Fe(Dp4e4mT)2]^+] | 213 % of the control | 4.8 % of the total |  |  | 
CCN(C)C([S-])=NN=C(c1ccccn1)c1ccccn1.CCN(C)C([S-])=NN=C(c1ccccn1)c1ccccn1.[Ga+3] [[Ga(Dp4e4mT)2]^+] |  | 1.3 % of the total | slight effect | significantly increased oxy-Mb and oxy-Hb oxidation | oxy-Mb oxidation (in words) (oxy-Mb; listed as Dp4e4mT Ga(III) complex): induced marked oxy-Mb oxidation
CCN(C)C([S-])=NN=C(c1ccccn1)c1ccccn1.CCN(C)C([S-])=NN=C(c1ccccn1)c1ccccn1.[Ni+2] [[Ni(Dp4e4mT)2]] |  |  | negligible effects on oxy-Hb oxidation | low activity; also recorded: minimal impact | oxy-Hb oxidation in erythrocytes versus the control (in words) ([1]; listed as Dp4e4mT Ni(II) complex): no (p > 0.05) significant effect on oxy-Hb oxidation
CCN(C)C([S-])=NN=C(c1ccccn1)c1ccccn1.[Cl-].[Pd+2] [[Pd(Dp4e4mT)Cl]] |  |  | negligible effects on oxy-Hb oxidation | minimal impact | oxy-Mb oxidation (in words) (oxy-Mb; [3]): no appreciable oxidation of oxy-Mb; oxy-Hb oxidation in erythrocytes versus the control (in words) [1, 3]: no (p > 0.05) significant effect on oxy-Hb oxidation
CCN(C)C([S-])=NN=C(c1ccccn1)c1ccccn1.CCN(C)C([S-])=NN=C(c1ccccn1)c1ccccn1.[Zn+2] [[Zn(Dp4e4mT)2]] |  |  | negligible effects on oxy-Hb oxidation | significantly increased oxy-Mb and oxy-Hb oxidation | oxy-Mb oxidation (in words) (oxy-Mb; [4]): induced marked oxy-Mb oxidation; oxy-Hb oxidation in erythrocytes versus the control (in words) [1, 4]: no (p > 0.05) significant effect on oxy-Hb oxidation
